From ChEMBL document CHEMBL1781897, “Synthesis, biological evaluation of prenylflavonoids as vasorelaxant and neuroprotective agents” (Bioorg Med Chem Lett, 2009)

Assays:
PC-12 [1] = experiment: Neuroprotective activity against oxygen-glucose deprivation-induced cell injury in rat PC12 cells assessed as cell viability at 1 uM; format: functional; details: read-out: Activity
PC-12 [2] = experiment: Neuroprotective activity against oxygen-glucose deprivation-induced cell injury in rat PC12 cells assessed as cell viability; format: functional, cell-based
Aorta [3] = experiment: Vasorelaxant activity in rat aortic ring assessed as inhibition of phenylephrine-induced contraction; format: functional, tissue-based
Aorta [4] = experiment: Vasorelaxant activity in rat aortic ring assessed as inhibition of phenylephrine-induced contraction relative to control; format: functional
PC-12 [5] = experiment: Neuroprotective activity against oxygen-glucose deprivation-induced cell injury in rat PC12 cells assessed as cell viability at 30 uM; format: functional; details: read-out: Activity

EC50 (Aorta [3]) [µM]	SMILES	viability at 1 µM (PC-12 [1]) [%]	Activity (PC-12 [2])	Emax (Aorta [4]) [%]	viability at 30 µM (PC-12 [5]) [%]
	COc1cc(C2CC(=O)c3c(O)cc(O)c(CC=C(C)C)c3O2)ccc1O (centres undefined)	94	Dose-dependent effect		
176	CC(C)=CCc1c(O)cc(O)c2c(=O)cc(-c3ccc(O)cc3O)oc12	93.5	Dose-dependent effect	91.5	
25	COc1cc(C2CC(=O)c3c(O)cc(O)c(CC=C(C)C)c3O2)cc(OC)c1OC (centres undefined)	89.1		66.3	
	CC(C)=CCc1c(O)cc(O)c2c(=O)cc(-c3ccc(O)c(O)c3)oc12	91.5		62.5	
	CC(C)=CCc1c(O)cc(O)c2c1OC(c1cccc(Br)c1)CC2=O (centres undefined)	88.1			
8.5	CC(C)=CCc1c(O)cc(O)c(C(=O)/C=C/c2ccc(O)cc2)c1O [DEMETHYLXANTHOHUMOL]	86.7		81.4	
	CC(C)=CCc1c(O)cc(O)c2c1O/C(=C\c1ccc(O)cc1)C2=O	81.6		74.5	
	CC1=NN(c2ccccc2)C(=O)C1 [EDARAVONE]				93.2
72.7	CC(C)=CCc1c(O)cc(O)c2c1OC(c1ccc(O)cc1)CC2=O (centres undefined) [SOPHORAFLAVANONE B]	89.3		101	
82	COc1cc([C@@H]2CC(=O)c3c(O)cc(O)cc3O2)ccc1O (racemic) [HOMOERIODICTYOL]	89.1		74.9	
	CC(C)=CCc1c(O)cc(O)c2c1OC(c1ccc(O)c(O)c1O)CC2=O (centres undefined)	90.3		69.7	
	CC(C)=CCc1c(O)cc(O)c2c1O/C(=C\c1ccc(O)cc1O)C2=O	90.4		30.5	
	CC(C)=CCc1c(O)cc(O)c2c(=O)cc(-c3ccc(O)c(O)c3O)oc12	88.6			
	O=c1c(O)c(-c2ccc(O)c(O)c2)oc2cc(O)cc(O)c12 [QUERCETIN]			91.3	
9.3	CC(C)=CCc1c(O)cc(O)c2c1OC(c1ccc(O)cc1O)CC2=O (racemic)	94.8	Dose-dependent effect	94.9	
